Measured values published in patent US20220127262A1, “CRYSTALLINE FORM OF A CDK INHIBITOR” (Pfizer Inc., priority 2019, published 2022).

Experiments:
Type in all cases: physicochemical
[1] = Solid-state chemical stability (long term and accelerated storage), total impurities by HPLC
Description: The chemical stability of PF-06873600 anhydrous free base (Form 1) was investigated at long term storage conditions (25° C./60% RH) for an extended time period and under accelerated stability conditions (40° C./75% RH) for a shorter period. Stability testing was conducted at 25° C./60% RH for 24 months (long term conditions) and at 40° C./75% RH for 6 months (accelerated conditions) and evaluated for appearance and purity by HPLC.
(§1) Stability samples of drug substance were packaged in double low-density polyethylene (LDPE) bags and desiccant within high-density polyethylene (HDPE) drum. Photostability samples were stored in a quartz Petri dish with a quartz lid.

[2] = Water sorption and desorption, automated vapor sorption analyzer
Description: Water sorption and desorption studies were conducted on automated vapor sorption analyzer (TA instruments Q5000 SA). The microbalance was calibrated using a 100 mg standard weight. The relative humidity sensor was calibrated at 5.0, 11.3, 32.8, 52.8, 75.3, and 84.3% RH (25° C.) using saturated salt solutions. Approximately 30 mg of the powder sample was placed in the quartz sample holder and dried at ≤3% relative humidity (RH) at 25° C. The attainment of equilibrium was assumed when the weight change of the sample was <0.001 wt % in 5 min or by a maximum equilibration time of 120 minutes. […] The attainment of equilibrium was again assumed when the weight change of the sample was <0.001 wt % in 5 min or by a maximum equilibration time of 120 minutes. The weight gain at each of the % RH steps is based on the weight after the initial drying step. The data were analyzed using Universal Analysis software V4.5A.

[3] = Photostability study under ICH conditions, light source option 2; conditions: for Total impurities: ICH photostability
Description: A photostability study was run under ICH conditions using light source option 2 ICH conditions.
as §1

With `C[C@@]1(O)CCC[C@H]1n1c(=O)c(C(F)F)cc2cnc(NC3CCN(S(C)(=O)=O)CC3)nc21` [PF-06873600 free base (Form 1), 6-(difluoromethyl)-8-[(1R,2R)-2-hydroxy-2-methylcyclopentyl]-2-{[1-(methylsulfonyl)piperidin-4-yl]amino}-pyrido[2,3-d]pyrimidin-7(8H)-one] the Total impurities ([1]; 25° C./60% RH, 3 mos.) was 0.49%, the Total impurities ([1]; 25° C./60% RH, 6 mos.) was 0.48% and the Total impurities ([1]; 25° C./60% RH, 12 mos.) was 0.51%. It also gave a Total impurities ([1]; 25° C./60% RH, 24 mos.) of 0.59%, a Total impurities ([1]; 25° C./60% RH, Initial) of 0.5% and a Total impurities ([1]; 40° C./75% RH, 3 mos.) of 0.47%. For the same compound, the Total impurities ([1]; 40° C./75% RH, 6 mos.) was 0.47%, the Total impurities ([1]; 40° C./75% RH, Initial) was 0.5% and the “Water Content, Desorption” value ([2]; 25° C., 10% RH) was −0.12 % w/w. The “Water Content, Sorption” value ([2]; 25° C., 10% RH) was 0.00 % w/w, the “Water Content, Desorption” value ([2]; 25° C., 20% RH) was −0.1 % w/w and the “Water Content, Sorption” value ([2]; 25° C., 20% RH) was 0.02 % w/w. For the same compound, the “Water Content, Desorption” value ([2]; 25° C., 30% RH) was −0.07 % w/w, the “Water Content, Sorption” value ([2]; 25° C., 30% RH) was 0.04 % w/w and the “Water Content, Desorption” value ([2]; 25° C., 40% RH) was −0.06 % w/w. For the same compound, the “Water Content, Sorption” value ([2]; 25° C., 40% RH) was 0.06 % w/w, the “Water Content, Desorption” value ([2]; 25° C., 50% RH) was −0.04 % w/w and the “Water Content, Sorption” value ([2]; 25° C., 50% RH) was 0.07 % w/w. For the same compound, the “Water Content, Desorption” value ([2]; 25° C., 60% RH) was −0.03 % w/w, the “Water Content, Sorption” value ([2]; 25° C., 60% RH) was 0.07 % w/w and the “Water Content, Desorption” value ([2]; 25° C., 70% RH) was −0.01 % w/w. The “Water Content, Sorption” value ([2]; 25° C., 70% RH) was 0.08 % w/w, the “Water Content, Desorption” value ([2]; 25° C., 80% RH) was 0.02 % w/w and the “Water Content, Sorption” value ([2]; 25° C., 80% RH) was 0.08 % w/w. For the same compound, the “Water Content, Desorption” value ([2]; 25° C., 90% RH) was 0.04 % w/w, the “Water Content, Sorption” value ([2]; 25° C., 90% RH) was 0.04 % w/w and the “Change in solid form” value ([2]; after the water sorption study) was “no change in solid form”. The Weight gain ([2]; up to 90% RH) was “no significant weight gain”, the Hygroscopicity ([2]; water sorption study, 25° C.) was “not hygroscopic” and the Total impurities ([3]; light source option 2, 8 days) was 0.64%. For the same compound, the Total impurities ([3]; light source option 2, Initial) was 0.58% and the “Appearance after photostability exposure” value ([3]; samples directly exposed to UV/Fluorescent conditions) was “change in appearance from an off-white powder to a pale-colored powder”.
